# Test results from US20230067929A1, “HETEROCYCLIC DERIVATIVES, PHARMACEUTICAL COMPOSITIONS AND THEIR USE IN THE TREATMENT, AMELIORATION OR PREVENTION OF CANCER” (Tolremo Therapeutics AG, priority 2018, published 2023).
# Tested on: A375 cells
# Assay: A375 cell immunofluorescence assay (with 1 μM S1152 and 0.5 μM S1008), EC50
# Format: cell-based
# Conditions: 1 μM S1152 + 0.5 μM S1008, one day, ratio FL2/FL3 staining (sc-365823 antibody)
# Description: One thousand four hundred A375 cells were seeded in each well of a 384 well microplate. One day later they were treated with 1 μM S1152 (Selleckchem) in dimethyl sulfoxide, 0.5 μM S1008 (Selleckchem) and dose ranges of invention compounds for one day in Dulbecco's Modified Eagle's Medium supplemented with 10% fetal calf serum and 2 mM (2S)-2-amino-4-carbamoylbutanoic acid. Wells were incubated with 4% polyoxymethylene (Sigma Aldrich 158127) at ambient temperature. After ten minutes, polyoxymethylene was replaced with phosphate-buffered saline. After one minute phosphate-buffered saline was replaced with 0.2% polyethylene glycol octylphenyl ether in phosphate-buffered saline. After ten minutes at ambient temperature 0.2% polyethylene glycol octylphenyl ether in phosphate-buffered saline was replaced with 1% aminoethanoic acid in phosphate-buffered saline. […] After one hour at 37° C., the solution was replaced with phosphate-buffered saline twice. Phosphate-buffered saline was replaced with 2 μg/ml A-11029 (Invitrogen) in 0.05% polyoxyethylene (20) sorbitan monolaurate in phosphate-buffered saline. […] After one hour at ambient temperature in the dark, signal in wells was measured with a Acumen Cellista. 3,8-Diamino-5-[3-(diethylmethylammonio)propyl]-6-phenylphenanthridinium diiodide-positive objects were defined in FL3 (565-600 nm) with a perimeter between 50-800 μm and a total intensity of 10000-1000000 FLU. Signal in FL2 (500-530 nm) was measured in defined objects. A normalized ratio of total ln FL2 over total ln FL3 staining was log transformed. A non-linear regression (variable slope, 4 parameters) was used to calculate EC50 values using GraphPad Prism (Version 7.0d).
row,SMILES,EC50
1,CC(=O)N1CCCC(c2nc(Nc3ccc(C)c(C)c3)cc(-c3cccnc3)n2)C1 (centres unmarked),< 1 µM
2,COc1cccc(-c2cc(Nc3cccc(F)c3)nc(C3CCCN(C(C)=O)C3)n2)c1 (centres unmarked),1 to 10 µM
3,CC(=O)N1CC(F)CC(c2nc(Nc3cccc(F)c3)cc(-c3cccnc3)n2)C1 (centres unmarked) [drawing 703],1 to 10 µM
4,CC(=O)N1CCCC(c2nc(Nc3cccc(F)c3)cc(-c3ccoc3)n2)C1 (centres unmarked),1 to 10 µM
5,CC(=O)N1CCCC(c2nc(Nc3cccc(F)c3)cc(-c3cnn[nH]3)n2)C1 (centres unmarked),> 10 µM
6,CCC(=O)N1CCC[C@H](c2nc(Nc3cccc(F)c3)cc(-c3cccnc3)n2)C1,> 10 µM
7,CCC(=O)N1CCCC(c2nc(Nc3cccc(F)c3)cc(-c3cccc(O)c3)n2)C1 (centres unmarked),1 to 10 µM
8,CCC(=O)N1CCCC(c2nc(Cc3cccc(F)c3)cc(-c3cccnc3)n2)C1 (centres unmarked),> 10 µM
9,CCC(=O)N1CCCC(c2nc(Nc3cccc(F)c3)cc(-c3ccccn3)n2)C1 (centres unmarked),> 10 µM
10,CCC(=O)N1CCCC(c2nc(Cl)cc(Nc3ccccc3F)n2)C1 (centres unmarked),> 10 µM
11,[2H]C([2H])([2H])C(=O)N1CCCC(c2nc(Nc3cccc(F)c3)cc(-c3cccnc3)n2)C1 (centres unmarked),< 1 µM
12,CC(=O)N1CCCC(c2nc(Nc3ccnc(C)c3)cc(-c3cccnc3)n2)C1 (centres unmarked),1 to 10 µM
13,CC(=O)N1CCCC(c2nc(Nc3cccc(F)c3)cc(NC3CCCOC3)n2)C1 (centres unmarked),1 to 10 µM
14,CCC(=O)N1CCCC(c2nc(Nc3ccc(F)cc3)cc(-c3cccnc3)n2)C1 (centres unmarked),> 10 µM
15,CC(=O)N1CCCC(c2nc(Nc3cc(F)cc(F)c3)cc(-c3cncnc3)n2)C1 (centres unmarked),1 to 10 µM
16,O=CN1CCCC(c2nc(Nc3cccc(F)c3)cc(-c3cccnc3)n2)C1 (centres unmarked),> 10 µM
17,COc1cncc(-c2cc(Nc3cccc(Cl)c3)nc([C@@H]3CCCN(C(C)=O)C3)n2)c1,< 1 µM
18,CC(=O)N1CCCC(c2cc(Nc3cccc(F)c3)cc(-c3cncnc3)n2)C1 (centres unmarked),1 to 10 µM
19,CCC(=O)N1CCCC(c2nc(Nc3cccc(F)c3)cc(-c3cnccc3OC)n2)C1 (centres unmarked),1 to 10 µM
20,CCC(=O)N1CCCC(c2nc(Nc3cccc(F)c3)cc(Nc3cccc(F)c3)n2)C1 (centres unmarked),> 10 µM
21,CCC(=O)N1CCCC(c2nc(Nc3cccc(F)c3)cc(-c3ccc(C(F)(F)F)nc3)n2)C1 (centres unmarked),1 to 10 µM
22,CC(=O)N1CCC(C)C(c2nc(Nc3cccc(F)c3)cc(-c3cccnc3)n2)C1 (centres unmarked) [drawing 720],1 to 10 µM
23,CC(=O)N1CCCC(c2nc(Nc3cnccn3)cc(-c3cccnc3)n2)C1 (centres unmarked),> 10 µM
24,O=C1CCCC2CCC(c3nc(Nc4cccc(F)c4)cc(-c4cccnc4)n3)CN12 (centres unmarked),> 10 µM

row,SMILES,EC50
1,CC(C)C(=O)N1CCCC(c2nc(Nc3cccc(F)c3)cc(-c3cccnc3)n2)C1 (centres unmarked),> 10 µM
2,CC(=O)N1CCCC(c2nc(Nc3cccc(F)c3)cc(-c3cnn(CC(F)(F)F)c3)n2)C1 (centres unmarked),1 to 10 µM
3,CCC(=O)N1CCCC(c2nc(Nc3ccc(O)nc3)cc(-c3cccnc3)n2)C1 (centres unmarked),> 10 µM
4,COc1cncc(-c2cc(Nc3cccc(C)c3)nc(C3CCCN(C(C)=O)C3)n2)c1 (centres unmarked),< 1 µM
5,CC(=O)N1CCCC(c2nc(Nc3cc(F)cc(F)c3)cc(-c3c(C)noc3C)n2)C1 (centres unmarked),1 to 10 µM
6,CC(=O)N1CCCC(c2nc(NC34CC(C3)C4)cc(-c3cncnc3)n2)C1 (centres unmarked),> 10 µM
7,CCC(=O)N1CCCC(c2nc(Nc3ccc(OC)cc3)cc(-c3cccnc3)n2)C1 (centres unmarked),1 to 10 µM
8,CC(=O)N1CC(OCc2ccccc2)CC(c2nc(Nc3cccc(F)c3)cc(-c3cccnc3)n2)C1 (centres unmarked),1 to 10 µM
9,CCC(=O)N1CCCC(c2nc(Nc3cccc(F)c3)cc(-c3cscn3)n2)C1 (centres unmarked),> 10 µM
10,CCC(=O)N1CCCC(c2nc(-c3cccnc3)cc(N(c3cccc(F)c3)C(C)C)n2)C1 (centres unmarked),> 10 µM
11,CCC(=O)N1CCCC(c2nc(Nc3cccc(F)c3)cc(-c3ccc(NC(C)=O)cc3)n2)C1 (centres unmarked),1 to 10 µM
12,CCC(=O)N1CCCC(c2nc(Nc3ccc(OC)nc3)cc(-c3cccnc3)n2)C1 (centres unmarked),> 10 µM
13,CC(=O)N1CCCC(c2nc(Nc3cccc(F)c3)cc(-c3scc4c3OCCO4)n2)C1 (centres unmarked),< 1 µM
14,COc1csc(-c2cc(Nc3cccc(F)c3)cc(C3CCCN(C(C)=O)C3)n2)c1 (centres unmarked),1 to 10 µM
15,CCC(=O)N1CCCC(c2nc(Nc3cccc(F)c3)cc(NC3CCOC3)n2)C1 (centres unmarked),> 10 µM
16,CCC(=O)N1CCCC(c2nc(Nc3cccc(F)c3)cc(-c3ccccc3OC)n2)C1 (centres unmarked),> 10 µM
17,CCC(=O)N1CCCC(c2nc(Nc3ccc(C)cc3)cc(-c3cccnc3)n2)C1 (centres unmarked),1 to 10 µM
18,CC(=O)N1CCCC(c2nc(Nc3ccon3)cc(-c3cncc4[nH]ccc34)n2)C1 (centres unmarked),> 10 µM
19,CC(=O)N1C[C@H](c2nc(Nc3cncc(C)c3)cc(-c3cncc(C)c3)n2)CC[C@@H]1C,< 1 µM
20,CNC(=O)c1ccc(-c2cc(Nc3cccc(F)c3)nc(C3CCCN(C(C)=O)C3)n2)cc1 (centres unmarked),1 to 10 µM
21,CC(=O)N1CCCC(c2nc(Nc3cccc(C)c3)cc(-c3ccnnc3)n2)C1 (centres unmarked),1 to 10 µM
22,CC(=O)N1CCCC(c2nc(Nc3cccc(C)c3)cc(-c3cccnc3)n2)C1 (centres unmarked),< 1 µM
23,CC(=O)N1CCCC(c2nc(Nc3cncnc3)cc(-c3cccnc3)n2)C1 (centres unmarked),> 10 µM
24,CC(=O)N1CCCC(c2nc(NC3CCCC3)cc(-c3cccnc3)n2)C1 (centres unmarked),> 10 µM

row,SMILES,EC50
1,CCC(=O)N1CCCC(c2nc(Nc3ccccc3Cl)cc(-c3cccnc3)n2)C1 (centres unmarked),1 to 10 µM
2,CCC(=O)N1CCCC(c2nc(Nc3cccc(F)c3)cc(C3=CCCC3)n2)C1 (centres unmarked),> 10 µM
3,CCC(=O)N1CCCC(c2nc(NCc3ccccc3)cc(Nc3cccc(F)c3)n2)C1 (centres unmarked),> 10 µM
4,CC(=O)N1CCCC(c2nc(Nc3cccc(F)c3)cc(-c3cc(C)cs3)n2)C1 (centres unmarked),< 1 µM
5,CCC(=O)N1CCCC(c2nc(Nc3ccccc3)cc(-c3cccnc3)n2)C1 (centres unmarked),1 to 10 µM
6,CCC(=O)N1CCCC(c2nc(Nc3cccc(F)c3)cc(-c3ccc(N(C)C)nc3)n2)C1 (centres unmarked),> 10 µM
7,CC(=O)N1CCCC(c2nc(Nc3cccc(F)c3)cc(-c3sc(C(C)C)nc3C)n2)C1 (centres unmarked),1 to 10 µM
8,CC(=O)N1CCCC(c2nc(Nc3cccc(F)c3)cc(-c3ncc(C)o3)n2)C1 (centres unmarked),> 10 µM
9,CCC(=O)N1CCCC(c2nc(Nc3cccc(F)c3)cc(-c3sc(C(C)C)nc3C)n2)C1 (centres unmarked),1 to 10 µM
10,CC(=O)N1CCCC(c2nc(Nc3cccc(F)c3)cc(-c3ccc(C)nc3)n2)C1 (centres unmarked),1 to 10 µM
11,CC(=O)N1CCCC(c2nc(Nc3cccc(F)c3)cc(NC3CCOCC3)n2)C1 (centres unmarked),> 10 µM
12,CC(=O)N1CC(F)CC(c2nc(Nc3cccc(F)c3)cc(-c3cccnc3)n2)C1 (centres unmarked) [drawing 702],1 to 10 µM
13,CC(=O)N1CCCC(c2cc(Nc3cccc(F)c3)nc(-c3cccnc3)c2)C1 (centres unmarked),> 10 µM
14,CC(=O)N1CCCC(c2nc(Nc3ccccc3)cc(-c3cncc4[nH]ccc34)n2)C1 (centres unmarked),< 1 µM
15,CC(=O)N1CC(c2cc(Nc3cccc(F)c3)cc(-c3cccnc3)n2)CCC1C (centres unmarked) [drawing 689],> 10 µM
16,CC(=O)N1CC(c2nc(Nc3cccc(F)c3)cc(-c3cccnc3)n2)CCC1c1ccccc1 (centres unmarked),> 10 µM
17,CC(=O)N1CCCC(c2nc(Nc3ncccn3)cc(-c3cccnc3)n2)C1 (centres unmarked),> 10 µM
18,CCC(=O)N1CCCC(c2nc(Nc3cccc(F)c3)cc(-c3cnn(C4CCC4)c3)n2)C1 (centres unmarked),> 10 µM
19,CCC(=O)N1CCCC(c2nc(Nc3cccc(F)c3)cc(C3CCCC3)n2)C1 (centres unmarked),> 10 µM
20,COc1cncc(-c2cc(Cc3cccc(F)c3)nc(C3CCCN(C(C)=O)C3)n2)c1 (centres unmarked),> 10 µM
21,COC(=O)c1cncc(-c2cc(Nc3cccc(F)c3)nc(C3CCCN(C(C)=O)C3)n2)c1 (centres unmarked),> 10 µM
22,CC(=O)N1CCCC(c2cc(Nc3cccc(F)c3)cc(-c3c(C)noc3C)n2)C1 (centres unmarked),1 to 10 µM
23,CC(=O)N1CCCC(c2nc(Nc3cccc(F)c3)cc(Nc3ncccn3)n2)C1 (centres unmarked),< 1 µM
